The values below come from patent US12227492B1, “Pyrimidine nucleosides as anticancer agents against pancreatic cancer” (Florida A&M University, priority 2021, dated 2025).

Data set [1] deals with MiaPaCa-2 pancreatic cancer cell line. Description: In vitro cell viability studies (resazurin/Alamar Blue). Format: cell-based. The note with it: for IC50: Homo sapiens, MIA PaCa-2, MiaPaCa-2, 48 hr incubation. The protocol: Prior to viability studies, Dulbecco's modified Eagle medium (DMEM) with high glucose and L-glutamine was supplemented with 10% fetal bovine serum (FBS) and 1% penicillin-streptomycin (PenStrep). Briefly, MiaPaCa-2 cells were seeded at a density of 1×10^3 per well in 96-well plates in triplicates for each drug concentration level and incubated at 5% CO2 and temperature of 37° C. At 70-75% confluence, MiaPaCa-2 cells were treated with compounds XYZ-I-71, XYZ-I-73, 5-Fluorouracil (5-FU), Gemcitabine (Gem) and Irinotecan. Varying concentrations of 4NSG was prepared from its stock solution with growth medium. For 5-Fluorouracil (5-FU), Gemcitabine Hydrochloride (GemHCl) and Irinotecan, a stock solution was prepared with phosphate-buffered saline (PBS) and serially diluted with growth medium to prepare varied concentrations: thus 3, 6, 12, 25, and 100 μM. Cells was treated with 100 μL of each drug concentration in triplicates and incubated for 48 hr. At termination, 20 μL of 0.05% resazurin sodium salt (Alamar Blue®) was added and incubated at optimum conditions (5% CO2, 37° C.) for 4 hr. Fluorimetric analysis was determined at excitation wavelength of 560/580 nm and emission wavelength of 590/610 nm and the percent viable cells per concentration was calculated. For statistical analysis, results are presented as mean±SD. Data were analyzed for significance by one-way ANOVA, using GraphPad Prism 5 Software and IC50 values were determined.
Background: Resazurin is reduced to fluorescent resorufin, in cell work by metabolically active cells.

A short description of another data set: Log P. Format: physicochemical.
The next data set deals with MiaPaCa-2 cells. Description: In vitro cell migration (wound) assay. Format: cell-based. Conditions: 2, 5 and 10 μM, after 48 h, compared with 5-FU, GemHCl. The protocol: A uniform scratch was made in 90% confluent monolayer culture of MiaPaCa-2 cells and the extent of closure was monitored under microscope and photographed. […] Migrated cells within the scratch were quantified and the distance of migration measured using NIH ImageJ software. […] Over the same incubation time, the cells in the control group (48 h) migrated farther achieving a complete or near closure of the wounds. The results are expressed as the means (±SEM, N=4) relative to the control.
Cell migration assay was conducted to determine the effect of on 5-FU, GemHCl, XYZ-I-71 and XYZ-I-73 MiaPaCa-2 cell motility. Ibidi cell culture inserts were used to generate two confluent monolayers of cells separated by a “wound” for this assay. The cells were seeded in 24-well plates at a cell density of 2.5×10^5, for 24 h at 37° C. At 75% confluency, cells formed adherent monolayers on either side of the tissue culture insert. Prior to treatment, the cells were serum-starved by replacing complete media with base media (DMEM) and then further incubated for 24 hours. After serum starving, the insert was gently removed to generate a gap or “wound’ between the two confluent layers of cells. The monolayers were washed with experimental media and afterwards cells were exposed to varying concentrations of 5-FU, GemHCl, XYZ-I-71 and XYZ-I-73 (1, 2, 5 and 10 μM). […]

Setting [2] is: mean ± SD, read-out: IC50 (μM) against MiaPaCa-2 cell line as determined by cell viability studies.
Where [3] appears, read: read-out: IC50 values, cytotoxic activity against MiaPaCa-2 cancer line.

By IC50 is commonly meant the concentration at which inhibition is half-maximal. One may read the logP as the decadic logarithm of the partition coefficient of the neutral form, usually between octanol and water.

The structures appear in SMILES notation. Structures can show the parent of a compound that is named as a salt. Where two headings read alike, the source gives them in different places.

Turning to `O=c1[nH]cc(F)c(=O)[nH]1` [Compound 5-FU, 5-Fluorouracil, reference compound], in data set [1] (setting [2]), the IC50 stood at 51.1 ± 1.1 µM.

For the compound `Nc1ccn([C@@H]2O[C@H](CO)[C@@H](O)C2(F)F)c(=O)n1` [GemHCl, Gemcitabine Hydrochloride, reference compound], the IC50 in data set [1] (setting [2]) stood at 25.3 ± 1.3 µM.

For the compound `CCc1c2c(nc3ccc(OC(=O)N4CCC(N5CCCCC5)CC4)cc13)-c1cc3c(c(=O)n1C2)COC(=O)[C@]3(O)CC` [Irinotecan, reference compound], the IC50 in data set [1] (setting [2]) stood at 28 ± 1.5 µM.

`CCCCCCCC(=O)Nc1nc(=O)n(C2CCCO2)cc1F` (centres unmarked) [XYZ-I-71, N-(5-fluoro-2-oxo-1-(tetrahydrofuran-2-yl)-1,2-dihydropyrimidin-4-yl)octanamide] had a logP in the data set “Log P” of 2.27. Further, the IC50 in data set [1] (setting [2]) came to 13.8 ± 1.7 µM; in data set [1] (setting [3]), 13.8 ± 1.1 µM. The “efficacy against MiaPaCa-2 cancer line compared with 5-FU (IC50 data)” value in data set [1] (MiaPaCa-2) is “greater efficacy”. In addition, in the data set on MiaPaCa-2 cells, the “number of migrated cells towards the wound” value was “significantly inhibited”.

The compound `CCCCCCCCCCCC(=O)Nc1nc(=O)n(C2CCCO2)cc1F` (centres unmarked) [XYZ-I-73, N-(5-fluoro-2-oxo-1-(tetrahydrofuran-2-yl)-1,2-dihydropyrimidin-4-yl)dodecanamide] displayed a logP in “Log P” of 3.94. Also, the IC50 in data set [1] (setting [2]) was 6.81 ± 2.1 µM; in data set [1] (setting [3]), 6.81 ± 1.1 µM. Besides, the “cytotoxic activity against MiaPaCa-2, XYZ-I-73 versus XYZ-I-71” value in data set [1] (MiaPaCa-2, FIG. 7) is recorded as “significant higher cytotoxic activity”. For the same compound, the “efficacy against MiaPaCa-2 cancer line compared with 5-FU (IC50 data)” value in data set [1] (MiaPaCa-2) is recorded as “greater efficacy”. In addition, the “number of migrated cells towards the wound” value in the data set on MiaPaCa-2 cells is on record as “significantly inhibited”.
